Source: publication PMC7050258, “Inhibition of MGAT2 modulates fat‐induced gut peptide release and fat intake in normal mice and ameliorates obesity and diabetes in ob/ob mice fed on a high‐fat diet” (FEBS Open Bio, 2020)
Several values for one entry are separate records, joined by “and”; a condition that tells them apart may be missing. Equal values may be shown once.

Legend:
[1] = system: HFD-fed ob/ob mice; experiment: HFD-fed ob/ob mice study; assay type: in vivo, mouse
Protocol: Male ob/ob mice were fed an HFD (D12451; Research Diets, Inc.) from 8 weeks of age to the end of the study. After 2 weeks of HFD feeding, the mice were divided into groups based on their body weight, food intake, glycated hemoglobin (GHb), and plasma biochemical parameters. […] Compounds were suspended in 0.5% methylcellulose. Body weight and food intake were monitored during the study. On day 34, blood was collected and GHb and plasma biochemical parameters were measured. In addition, body composition was analyzed by EchoMRI‐900 (Hitachi Aloka Medical, Ltd., Tokyo, Japan). On day 36, the mice in the vehicle‐ and CpdB‐treated group were individually placed in the metabolic chamber of an Oxymax system (Columbus Instruments, Columbus, OH, USA). After 3 h of adaptation, oxygen consumption (VO2) and carbon dioxide production (VCO2) were analyzed for 22 h (from 13:00 to 11:00). During the measurement, dosing of vehicle or CpdB was performed at 18:00. Respiratory quotient (RQ) and energy expenditure (EE) were calculated with the following formulas: RQ=VCO2/VO2 EEkcal/h=3.815+1.232×VCO2/VO2×VO2
Blood samples were collected from the tail or facial vein without anesthesia and centrifuged at 1500 g for 10 min at 4 °C to isolate the plasma. To prevent degradation of incretin hormone, blood samples were treated with not only heparin/aprotinin but also a dipeptidyl peptidase‐4 (DPP‐4) inhibitor. Plasma alanine aminotransferase […] levels were measured by an Autoanalyzer 7180 (Hitachi High‐Technologies Corporation, Tokyo, Japan). GHb was measured with an automated GHb analyzer (HLC‐723G8; Tosoh, Tokyo, Japan). Plasma insulin was measured with an ELISA kit (Shibayagi Co., Ltd., Gunma, Japan). Plasma levels of total GLP‐1 and total PYY were also measured with an ELISA kit (Wako Pure Chemicals).

[2] = system: rats fed a 35% fat diet; design: method as in PMID 25857225; details: cited from earlier work
[3] = system: rats; design: method as in PMID 22301859; details: cited from earlier work
[4] = system: C57BL/6J mice; experiment: Food choice test (HFD vs LFD); assay type: in vivo, mouse; details: overnight, CpdB 10 mg/kg oral, liraglutide 0.04 mg/kg sc
Protocol: The choice between HFD (D12451; Research Diets, Inc.) and low‐fat diet (LFD, 10% kcal fat, 3.8 kcal·g^−1; D124510B; Research Diets, Inc.) was assessed in C57BL/6J mice. Following habituation to normal chow, HFD and LFD were presented in separate containers simultaneously, and overnight food intake of each diet was monitored. The mice were divided into groups based on the data of food intake and body weight. Then, vehicle or CpdB (10 mg·kg^−1) was orally administered, and the overnight food intake of each diet was monitored. CpdB was suspended in 0.5% methylcellulose. As a positive control, liraglutide (0.04 mg·kg^−1) dissolved in 10% DMSO/saline was subcutaneously administered.

[5] = CpdB 30 mg/kg, pioglitazone 3 mg/kg oral once daily, mean
[6] = CpdB 30 mg/kg, pioglitazone 3 mg/kg oral once daily, single animal values
[7] = EchoMRI, day 34, CpdB 30 mg/kg, pioglitazone 3 mg/kg, mean
[8] = EchoMRI, day 34, CpdB 30 mg/kg, pioglitazone 3 mg/kg, single animal values
[9] = day 34, CpdB 30 mg/kg, pioglitazone 3 mg/kg oral once daily, mean ± SD, n=8

CCc1ccc(CCOc2ccc(CC3SC(=O)NC3=O)cc2)nc1 (stereo not shown) [Pioglitazone, pioglitazone, reference compound]
Body weight change from initial, AVE [1, 5]: 30.48%
Cumulative food intake, AVE [1, 5]: 136.37 g
Body weight change from initial, individual animal [1, 6]: 29.04% and 29.60% and 25.91% and 30.72% and 29.56% and 32.63% and 37.29%
Cumulative food intake, individual animal [1, 6]: 144.84 g and 134.34 g and 122.14 g and 143.74 g and 138.07 g and 136.64 g and 133.11 g and 138.10 g
Body composition, Fat, AVE [1, 7]: 63.35%
Body composition, Lean, AVE [1, 7]: 36.65%
Body composition, Fat, individual animal [1, 8]: 62.74% and 63.31% and 66.38% and 62.25% and 63.50% and 61.77% and 61.53% and 65.34%
Body composition, Lean, individual animal [1, 8]: 33.62% and 37.75% and 36.50% and 38.23% and 38.47% and 37.26% and 36.69%
GHb, Pre ([1]; before dosing, mean ± SD, n=8): 5.9 ± 0.3%
Plasma AST, Pre ([1]; before dosing, mean ± SD, n=8): 314 ± 61 U·L^−1
Plasma insulin, Pre ([1]; before dosing, mean ± SD, n=8): 103 ± 29 ng/mL
ΔGHb, AVE ([1]; change 34 days after repeated dosing, CpdB 30 mg/kg, pioglitazone 3 mg/kg oral once daily, mean): -1.01%
ΔGHb, individual animal ([1]; change 34 days after repeated dosing, CpdB 30 mg/kg, pioglitazone 3 mg/kg, single animal values): -1.00% and -0.90% and -1.10% and -1.40% and -0.70% and -0.80%
GHb, Post [1, 9]: 4.9 ± 0.4 %
Plasma ALT, Post [1, 9]: 803 ± 132 U·L^−1
Plasma AST, Post [1, 9]: 733 ± 174 U·L^−1
Plasma insulin, Post ([1]; day 34, CpdB 30 mg/kg, pioglitazone 3 mg/kg oral once daily, nonfasting, mean ± SD, n=8): 30.8 ± 16 ng/mL

CC(C)(C)c1cc(C(C)(C)C)nc(N2CCn3c(nnc3-c3ccc(OC(F)(F)F)cc3)C2)n1 [JTP‐103237]
increase of plasma levels of PYY after lipid loading [2]: enhance the increase

Liraglutide
intake of highly palatable diet [3]: predominantly reduce the intake of highly palatable diet
Food intake, energy intake of HFD, AVE ([4]; mean, N=5): 6.46 kcal
Food intake, energy intake of low-fat diet, AVE ([4]; mean, N=5): 0.24 kcal
Food intake, total energy intake, AVE ([4]; mean, N=5): 6.69 kcal
Food intake, energy intake of HFD, individual animal ([4]; single animal values): 6.02 kcal and 8.08 kcal and 6.16 kcal and 4.18 kcal and 7.85 kcal
Food intake, energy intake of low-fat diet, individual animal ([4]; single animal values): 0.00 kcal and 0.19 kcal and 0.34 kcal and 0.27 kcal and 0.38 kcal
Food intake, total energy intake, individual animal ([4]; single animal values): 6.02 kcal and 8.27 kcal and 6.50 kcal and 4.45 kcal and 8.23 kcal
